From BindingDB's records for PubMed 10900230 (University of Michigan, 2000)

molecular target: T1, Alpha-2A adrenergic receptor (Sus scrofa, UniProt P18871)
T1 sequence (P18871 whole entry): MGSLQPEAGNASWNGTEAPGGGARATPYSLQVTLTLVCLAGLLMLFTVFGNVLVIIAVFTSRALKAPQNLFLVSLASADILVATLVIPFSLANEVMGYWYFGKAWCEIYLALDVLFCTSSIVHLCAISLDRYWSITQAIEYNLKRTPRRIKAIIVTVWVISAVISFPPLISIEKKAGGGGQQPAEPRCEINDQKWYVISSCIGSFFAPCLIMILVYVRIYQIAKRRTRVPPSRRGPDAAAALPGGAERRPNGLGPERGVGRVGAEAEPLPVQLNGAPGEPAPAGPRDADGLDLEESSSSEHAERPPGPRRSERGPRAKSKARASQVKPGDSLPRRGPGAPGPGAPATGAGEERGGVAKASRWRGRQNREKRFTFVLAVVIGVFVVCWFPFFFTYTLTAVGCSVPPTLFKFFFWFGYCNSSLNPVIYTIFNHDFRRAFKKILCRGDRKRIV

Compound | Ki
Cc1cc(C(C)(C)C)c(O)c(C)c1CC1=NCCN1 [SMR000059324] | 35.5 nM
NC(N)=NN=Cc1c(Cl)cccc1Cl [Guanabenz] | 57.5 nM
CCN1CCc2nc(N)oc2CC1 [NSC_169743] | > 10000 nM
Clc1cc(I)cc(Cl)c1N=C1NCCN1 [Iodoclonidine-p] | 51.3 nM
NCC(O)c1ccc(O)c(O)c1 (stereo not drawn) [Noradrenaline,(+)] | 5620 nM
Nc1cc(Cl)c(N=C2NCCN2)c(Cl)c1 [p-AMINOCLONIDINE] | 288 nM
Clc1cccc(Cl)c1N=C1NCCN1 [2-(2,6-dichloroanilino)-2-imidazoline] | 85.1 nM
Brc1c(NC2=NCCN2)ccc2nccnc12 [UK 14,304] | 479 nM
Cc1cccc(C)c1N=C1NCCCS1 [(5,6-Dihydro-4H-[1,3]thiazin-2-yl)-(2,6-dimethyl-phenyl)-amine] | 3160 nM
CC(C)NCC(O)c1ccc(O)c(O)c1 (stereo not drawn) [Isoproterenol,(+)] | > 10000 nM
CNCC(O)c1ccc(O)c(O)c1 (stereo unspecified) [EPINEPHRINE] | 646 nM
